Assays:
Type in all cases: in vivo
[1] = test system: bermudagrass (Cynodon dactylon); assay: Test C pre/postemergence
Summary of the method: (§1)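 Test compounds, formulated in a non-phytotoxic solvent mix with surfactant, were applied to freshly planted seeds and, at the same time, to emerged plants at 1- to 4-leaf stage (2 to 18 cm). After 12 to 14 days in the greenhouse, response was scored visually versus controls, 0 = no effect, 100 = complete control.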

[2] = test system: common ragweed (Ambrosia elatior); assay: Test C pre/postemergence
Summary of the method: as §1

[3] = test system: goosegrass (Eleusine indica); assay: Test C pre/postemergence
Summary of the method: as §1

[4] = test system: pigweed (Amaranthus retroflexus); assay: Test C pre/postemergence
Summary of the method: as §1

[5] = test system: velvetleaf (Abutilon theophrasti); assay: Test C pre/postemergence
Summary of the method: as §1

[6] = test system: woolly cupgrass (Eriochloa villosa); assay: Test C pre/postemergence
Summary of the method: as §1

[7] = test system: yellow nutsedge (Cyperus esculentus); assay: Test C pre/postemergence
Summary of the method: as §1

[8] = test system: chickweed (Stellaria media); assay: Test C postemergence; details: for Plant response rating, Chickweed: scale 0 to 100
Summary of the method: as §1

[9] = Postemergence, 62 g ai/ha, scale 0 to 100 (0 no effect, 100 complete control)
[10] = Postemergence, 125 g ai/ha, scale 0 to 100 (0 no effect, 100 complete control)
[11] = Postemergence, 250 g ai/ha, scale 0 to 100
[12] = Postemergence, 500 g ai/ha, scale 0 to 100
[13] = Preemergence, 62 g ai/ha, scale 0 to 100, 0 no effect, 100 complete control
[14] = Preemergence, 125 g ai/ha, scale 0 to 100
[15] = Preemergence, 250 g ai/ha, scale 0 to 100
[16] = Preemergence, 500 g ai/ha, scale 0 to 100

## COC(=O)c1nc(C2CC2)nc(N)c1I [Compound 7]
[1]; Cynodon dactylon, post-emergence, Postemergence, 62 g ai/ha, scale 0 to 100 (0 no effect, 100 complete control), read-out: Bermudagrass plant response rating
  pest or weed control at 62 g/ha: 0%
[1]; Cynodon dactylon, post-emergence, Postemergence, 125 g ai/ha, scale 0 to 100, read-out: Plant response rating, Bermudagrass
  pest or weed control at 125 g/ha: 0%
[1]; Cynodon dactylon, post-emergence, Postemergence, 250 g ai/ha, scale 0 to 100, read-out: Plant response rating, Bermudagrass
  pest or weed control at 250 g/ha: 0%
[1]; Cynodon dactylon, post-emergence, Postemergence, 500 g ai/ha, scale 0 to 100, read-out: Plant response rating, Bermudagrass
  pest or weed control at 500 g/ha: 0%
[2]; Ambrosia artemisiifolia, post-emergence, Postemergence, 62 g ai/ha, scale 0 to 100 (0 no effect, 100 complete control), read-out: Ragweed plant response rating
  pest or weed control at 62 g/ha: 25%
[2]; Ambrosia artemisiifolia, post-emergence, Postemergence, 125 g ai/ha, scale 0 to 100 (0 no effect, 100 complete control), read-out: Ragweed plant response rating
  pest or weed control at 125 g/ha: 35%
[2]; Ambrosia artemisiifolia, post-emergence, Postemergence, 250 g ai/ha, scale 0 to 100, read-out: Plant response rating, Ragweed
  pest or weed control at 250 g/ha: 65%
[2]; Ambrosia artemisiifolia, post-emergence, Postemergence, 500 g ai/ha, scale 0 to 100, read-out: Plant response rating, Ragweed
  pest or weed control at 500 g/ha: 75%
[3]; Eleusine indica, post-emergence, Postemergence, 62 g ai/ha, scale 0 to 100 (0 no effect, 100 complete control), read-out: Goosegrass plant response rating
  pest or weed control at 62 g/ha: 0%
[3]; Eleusine indica, post-emergence, Postemergence, 125 g ai/ha, scale 0 to 100 (0 no effect, 100 complete control), read-out: Goosegrass plant response rating
  pest or weed control at 125 g/ha: 0%
[3]; Eleusine indica, post-emergence, Postemergence, 250 g ai/ha, scale 0 to 100, read-out: Plant response rating, Goosegrass
  pest or weed control at 250 g/ha: 0%
[3]; Eleusine indica, post-emergence, Postemergence, 500 g ai/ha, scale 0 to 100, read-out: Plant response rating, Goosegrass
  pest or weed control at 500 g/ha: 0%
[4]; Amaranthus retroflexus, post-emergence, Postemergence, 62 g ai/ha, scale 0 to 100 (0 no effect, 100 complete control), read-out: Pigweed plant response rating
  pest or weed control at 62 g/ha: 20%
[4]; Amaranthus retroflexus, post-emergence, Postemergence, 125 g ai/ha, scale 0 to 100 (0 no effect, 100 complete control), read-out: Pigweed plant response rating
  pest or weed control at 125 g/ha: 40%
[4]; Amaranthus retroflexus, post-emergence, Postemergence, 250 g ai/ha, scale 0 to 100, read-out: Plant response rating, Pigweed
  pest or weed control at 250 g/ha: 40%
[4]; Amaranthus retroflexus, post-emergence, Postemergence, 500 g ai/ha, scale 0 to 100, read-out: Plant response rating, Pigweed
  pest or weed control at 500 g/ha: 55%
[5]; Abutilon theophrasti, post-emergence, Postemergence, 62 g ai/ha, scale 0 to 100 (0 no effect, 100 complete control), read-out: Velvetleaf plant response rating
  pest or weed control at 62 g/ha: 0%
[5]; Abutilon theophrasti, post-emergence, Postemergence, 125 g ai/ha, scale 0 to 100 (0 no effect, 100 complete control), read-out: Velvetleaf plant response rating
  pest or weed control at 125 g/ha: 10%
[5]; Abutilon theophrasti, post-emergence, Postemergence, 250 g ai/ha, scale 0 to 100, read-out: Plant response rating, Velvetleaf
  pest or weed control at 250 g/ha: 35%
[5]; Abutilon theophrasti, post-emergence, Postemergence, 500 g ai/ha, scale 0 to 100, read-out: Plant response rating, Velvetleaf
  pest or weed control at 500 g/ha: 40%
[6]; Eriochloa villosa, post-emergence, Postemergence, 62 g ai/ha, scale 0 to 100 (0 no effect, 100 complete control), read-out: Cupgrass, Woolly plant response rating
  pest or weed control at 62 g/ha: 0%
[6]; Eriochloa villosa, post-emergence, Postemergence, 125 g ai/ha, scale 0 to 100 (0 no effect, 100 complete control), read-out: Cupgrass, Woolly plant response rating
  pest or weed control at 125 g/ha: 0%
[6]; Eriochloa villosa, post-emergence, Postemergence, 250 g ai/ha, scale 0 to 100, read-out: Plant response rating, Cupgrass, Woolly
  pest or weed control at 250 g/ha: 0%
[6]; Eriochloa villosa, post-emergence, Postemergence, 500 g ai/ha, scale 0 to 100, read-out: Plant response rating, Cupgrass, Woolly
  pest or weed control at 500 g/ha: 20%
[7]; Cyperus, post-emergence, Postemergence, 62 g ai/ha, scale 0 to 100 (0 no effect, 100 complete control), read-out: Nutsedge, Yellow plant response rating
  pest or weed control at 62 g/ha: 0%
[7]; Cyperus, post-emergence, Postemergence, 125 g ai/ha, scale 0 to 100 (0 no effect, 100 complete control), read-out: Nutsedge, Yellow plant response rating
  pest or weed control at 125 g/ha: 0%
[7]; Cyperus, post-emergence, Postemergence, 250 g ai/ha, scale 0 to 100, read-out: Plant response rating, Nutsedge, Yellow
  pest or weed control at 250 g/ha: 0%
[7]; Cyperus, post-emergence, Postemergence, 500 g ai/ha, scale 0 to 100, read-out: Plant response rating, Nutsedge, Yellow
  pest or weed control at 500 g/ha: 0%
[8]; Stellaria media, post-emergence, 62 g ai/ha, scale 0 to 100 (0 no effect, 100 complete control), read-out: Chickweed plant response rating
  pest or weed control at 62 g/ha: 0%
[8]; Stellaria media, post-emergence, 125 g ai/ha, scale 0 to 100, read-out: Plant response rating, Chickweed
  pest or weed control at 125 g/ha: 0%
[8]; Stellaria media, post-emergence, 250 g ai/ha, scale 0 to 100, read-out: Plant response rating, Chickweed
  pest or weed control at 250 g/ha: 0%
[8]; Stellaria media, post-emergence, 500 g ai/ha, scale 0 to 100, read-out: Plant response rating, Chickweed
  pest or weed control at 500 g/ha: 0%

## COC(=O)c1nc(C2CC2C)nc(N)c1Br (centres unmarked) [Compound 28]
[1]; [9]
  Bermudagrass plant response rating: 0
[1]; [10]
  Bermudagrass plant response rating: 0
[1]; [11]
  Plant response rating, Bermudagrass: 0
[1]; [12]
  Plant response rating, Bermudagrass: 0
[1]; [13]
  Plant response rating, Bermudagrass: 0
[1]; [14]
  Plant response rating, Bermudagrass: 20
[1]; [15]
  Plant response rating, Bermudagrass: 30
[1]; [16]
  Plant response rating, Bermudagrass: 35
[2]; [9]
  Ragweed plant response rating: 65
[2]; [10]
  Ragweed plant response rating: 80
[2]; [11]
  Plant response rating, Ragweed: 90
[2]; [12]
  Plant response rating, Ragweed: 95
[2]; [13]
  Plant response rating, Ragweed: 65
[2]; [14]
  Plant response rating, Ragweed: 95
[2]; [15]
  Plant response rating, Ragweed: 100
[2]; [16]
  Plant response rating, Ragweed: 100
[3]; [9]
  Goosegrass plant response rating: 0
[3]; [10]
  Goosegrass plant response rating: 0
[3]; [11]
  Plant response rating, Goosegrass: 0
[3]; [12]
  Plant response rating, Goosegrass: 15
[3]; [13]
  Plant response rating, Goosegrass: 0
[3]; [14]
  Plant response rating, Goosegrass: 0
[3]; [15]
  Plant response rating, Goosegrass: 0
[3]; [16]
  Plant response rating, Goosegrass: 20
[4]; [9]
  Pigweed plant response rating: 30
[4]; [10]
  Pigweed plant response rating: 35
[4]; [11]
  Plant response rating, Pigweed: 60
[4]; [12]
  Plant response rating, Pigweed: 75
[4]; [13]
  Plant response rating, Pigweed: 80
[4]; [14]
  Plant response rating, Pigweed: 95
[4]; [15]
  Plant response rating, Pigweed: 100
[4]; [16]
  Plant response rating, Pigweed: 100
[5]; [9]
  Velvetleaf plant response rating: 45
[5]; [10]
  Velvetleaf plant response rating: 50
[5]; [11]
  Plant response rating, Velvetleaf: 70
[5]; [12]
  Plant response rating, Velvetleaf: 75
[5]; [13]
  Plant response rating, Velvetleaf: 50
[5]; [14]
  Plant response rating, Velvetleaf: 55
[5]; [15]
  Plant response rating, Velvetleaf: 95
[5]; [16]
  Plant response rating, Velvetleaf: 100
[6]; [9]
  Cupgrass, Woolly plant response rating: 0
[6]; [10]
  Cupgrass, Woolly plant response rating: 0
[6]; [11]
  Plant response rating, Cupgrass, Woolly: 0
[6]; [12]
  Plant response rating, Cupgrass, Woolly: 0
[6]; [13]
  Plant response rating, Cupgrass, Woolly: 0
[6]; [14]
  Plant response rating, Cupgrass, Woolly: 0
[6]; [15]
  Plant response rating, Cupgrass, Woolly: 0
[6]; [16]
  Plant response rating, Cupgrass, Woolly: 0
[7]; [9]
  Nutsedge, Yellow plant response rating: 0
[7]; [10]
  Nutsedge, Yellow plant response rating: 0
[7]; [11]
  Plant response rating, Nutsedge, Yellow: 0
[7]; [12]
  Plant response rating, Nutsedge, Yellow: 0
[7]; [13]
  Plant response rating, Nutsedge, Yellow: 0
[7]; [14]
  Plant response rating, Nutsedge, Yellow: 0
[7]; [15]
  Plant response rating, Nutsedge, Yellow: 0
[7]; [16]
  Plant response rating, Nutsedge, Yellow: 0
[8]; 62 g ai/ha, scale 0 to 100 (0 no effect, 100 complete control)
  Chickweed plant response rating: 0
[8]; 125 g ai/ha, scale 0 to 100 (0 no effect, 100 complete control)
  Chickweed plant response rating: 0
[8]; 250 g ai/ha
  Plant response rating, Chickweed: 15
[8]; 500 g ai/ha
  Plant response rating, Chickweed: 20

Reference: patent US8802597B2, “Herbicidal pyrimidines” (E I du Pont de Nemours and Company, priority 2003, dated 2014)
